Laboratory results from patent US20250114313A1, “OLIGO-BENZAMIDE ANALOGS AND THEIR USE IN CANCER TREATMENT” (BOARD OF REGENTS, THE UNIVERSITY OF TEXAS SYSTEM, priority 2022, published 2025).

Columns and labels:
[1] = tested on: HMEC cells; assay: Western blotting (UPR proteins, puromycin labeled nascent proteins), HMEC; assay type: cell-based, human; conditions: 1 μM
[2] = tested on: ERα-positive cell lines; assay: WST assay, ERα-positive cell lines; assay type: cell-based; conditions: Homo sapiens, read-out: anti-proliferative IC50, WST
Procedure: (§1) Cell viability assays: Cells were seeded in 96-well plates (2×10^3 cells/well) one day before the treatment. Cells were treated with varying concentrations of ERX-41 or ERX-11 analogs for 3-6 days. Then effects of ERX-41 or ERX-11 analogs on cell viability were measured in triplicate or sextuplicate with multiple biological replicates using the WST-1 (Promega), MTT as previously described^33 or CellTiter-Glo 2.0 (Promega) assays.

[3] = target: T1, LAL lipase activity (Homo sapiens, UniProt P38571); assay: Lipase activity assay (4-MUP), SUM-159 cell lysate; assay type: biochemical; conditions: SUM-159 cells; 30 μM
T1 construct: heat stability of LAL or vinculin protein in SUM-159 cells; endogenous in cells; host or cells: SUM-159
T1 sequence (P38571 77-399): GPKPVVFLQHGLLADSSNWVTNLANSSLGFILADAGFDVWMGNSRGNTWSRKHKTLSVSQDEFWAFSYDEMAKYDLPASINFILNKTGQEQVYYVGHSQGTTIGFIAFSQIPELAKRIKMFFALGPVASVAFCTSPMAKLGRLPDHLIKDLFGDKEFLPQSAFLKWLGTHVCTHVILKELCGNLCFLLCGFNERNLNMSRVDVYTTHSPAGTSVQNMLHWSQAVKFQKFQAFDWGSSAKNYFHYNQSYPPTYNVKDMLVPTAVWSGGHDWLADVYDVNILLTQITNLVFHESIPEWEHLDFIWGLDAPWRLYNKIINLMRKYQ
Procedure: Lipase activity assay: Lipase activity assays were performed as described previously (Dairaku, et al)^37. Briefly, a 0.345 mM substrate solution was prepared from 1.2 mL of 13.3 mM 4-MUP and 42 mL of 100 mM sodium acetate buffer pH 4.0, 1.0% (v/v) Triton X-100 and 3.0 mL of 0.5% (w/v) cardiolipin. For the enzyme reaction, 50 μL of the substrate in buffer solution, 40 μL of diluted cell lysate and 10 μL of DMSO or 30 μM Lalistat2 or 30 μM ERX-41 were combined in a black 96-well plate. The plates were sealed with an adhesive aluminum film and incubated in a 37° C. incubator for 1 h. The reactions were terminated using 200 μL of 150 mM EDTA at pH 11.5. The fluorescence of the plates were read immediately with synergy H1 fluorescence microplate reader (BioTek) using a 365-nm excitation filter and a 450-nm emission filter. The LIPA lipase activity was calculated by subtracting the enzymatic activity of the inhibited (with Lalistat2) reaction from that of the uninhibited (without Lalistat2) reaction.

[4] = tested on: ERα-positive cell lines; assay: CellTiter-Glo assay, ERα-positive cell lines; assay type: cell-based; conditions: Homo sapiens, read-out: anti-proliferative IC50, CellTiter-Glo
Procedure: as §1

[5] = tested on: 21 human preclinical TNBC cell line models; assay: WST-1 assay, TNBC cell lines; assay type: cell-based; conditions: 21 TNBC cell lines, all six molecular subtypes, read-out: anti-proliferative IC50, WST-1
Procedure: as §1

[6] = tested on: HSPA5, DDIT3, sXBP1 mRNA in HMEC cells; assay: RT-qPCR of ER stress / UPR genes, HMEC; assay type: cell-based, human; conditions: 1 μM
[7] = tested on: ERα+ breast, glioblastoma, pancreatic and ovarian cancer cell lines; assay: CTG dose response in other cancer cell lines; assay type: cell-based
Procedure: as §1

[8] = target: T2, lysosomal acid lipase (LAL) protein (Homo sapiens, UniProt P38571); assay: Cellular thermal shift assay, LAL; assay type: binding; conditions: 10 μM, SUM-159 cells
T2 construct: heat stability of LAL or vinculin protein in SUM-159 cells; endogenous in cells; host or cells: SUM-159
Procedure: Cellular Thermal Shift Assay (CETSA): Cellular Thermal Shift Assays were performed as described previously^36. Briefly, cells were treated with DMSO or 10 μM ERX-41 for 30 min, then trypsinized, pelleted and resuspended in PBS supplemented with Halt protease inhibitor cocktail (Thermo Scientific), with DMSO or 10 μM ERX-41. Resuspended cells were aliquoted into PCR strips. The cells were incubated in thermal cycler (Bio-rad) at gradient temperatures for 3 minutes, followed by incubation at 25° C. for 3 minutes. Then cells were snap-frozen in liquid nitrogen. Freeze-thaw the cells twice using liquid nitrogen. Then transfer samples into Eppendorf tubes, followed by briefly vortex and centrifuge at 20,000 g for 20 minutes at 4° C. Mix cleared cell lysates with ⅓ volume of 4× Laemmli sample buffer. After boiling, cell lysates were resolved in SDS-PAGE followed by western blotting.

[9] = tested on: SUM-159 cells with LIPA KO; assay: UPR induction and protein synthesis in SUM-159 cells with LIPA KO (RNA-seq, RT-qPCR, western); assay type: cell-based, Human; conditions: 1 μM, 4 h
Procedure: Western blotting: Whole cell lysates from breast cancer cells were prepared with 2× sample buffer (60 mM Tris-HCl, pH 6.8, 2% sodium dodecyl sulfate, 10% glycerol), and before loading mixed with loading buffer (5% 2-mercaptoethanol, 0.1% bromophenol blue) and boiled for denaturation, as previously described.^33 Proteins were separated by SDS-PAGE and subjected to Western analysis using antibodies. To detect nascent translated proteins, puromycin (final concentration 10 μg/mL) was added into cell plates 30 minutes before harvesting cells. Then samples were subjected to the Western blotting. Nascent proteins were detected by anti-puromycin antibody.
Real-time quantitative PCR (RT-qPCR): Total RNA was prepared from breast cancer cells using the RNeasy Mini Kit (Qiagen) according to the manufacturer protocols. Subsequently, total RNAs were reverse transcribed into cDNA using iScript Reverse Transcription Supermix (Bio-rad) and by using SYBR Green on an Illumina Real-Time PCR system.
RNA-sequencing: mRNA-seq sequencing library construction was performed using TruSeq RNA Library Preparation Kit (Illumina) according to the manufacturer's instructions. FASTQ reads from Genomics Core at UTSW were mapped to Human GRCh38 genome using HiSAT2 (RRID:SCR_015530). Differential expression analysis is performed using DEseq2 (RRID:SCR_015687). Abundances of transcripts are calculated using ballgown (Frazee et al. 2014). The values of Fragments Per Kilobase of transcript per Million mapped reads (FPKM) were used for Gene Set Enrichment Analysis (GSEA). GSEA was performed by using the GSEA software (RRID:SCR_005724) and C5 ontology gene sets (14765 gene sets in total). mRNA-seq data from this study are available from NCBI GEO under accession #GSE168800.

[10] = tested on: LAL; assay: Biotinylated compound pull down of LAL from SUM-159 lysates; assay type: binding, Human
Procedure: The lysate was incubated with biotinylated-ERX-11 or biotinylated-ERX-41 overnight, followed by one-hour incubation with M-270 streptavidin Dynabeads. After four times of washes with lysis buffer, samples were eluted by boiling in 2× Laemmli sample buffer. Bound proteins were resolved in SDS-PAGE followed by western blotting.

CC(C)COc1cc(C(=O)Nc2ccc(C(=O)N[C@H]3CC[C@H](C)CC3)cc2OCC(C)C)ccc1NC(=O)c1ccc([N+](=O)[O-])c(OCCO)c1 [ERX-41]
global de novo protein synthesis in HMEC [1]: not HMEC cells
induction of ER stress / UPR proteins in HMEC [1]: not in HMEC cells
IC50 [2]: 50 to 1000 nM
lipase activity of LIPA [3]: no inhibition of lipase activity
IC50 [4]: 100 to 125 nM
IC50 [5]: < 500 nM
upregulation of HSPA5, DDIT3, sXBP1 mRNA in HMEC [6]: not in HMEC cells
responsiveness of other cancer cell lines in vitro [7]: responsiveness to ERX-41 in vitro
thermal stability of LAL [8]: stabilize the thermal stability of LAL
genes altered by RNA sequencing in LIPA KO cells [9]: no genes significantly altered
pulldown of LIPA constructs ([10]; biotinylated ERX-41, WT, H274Y, ΔLXXLL, L242P): interaction between ERX-41 and proteins encoded by WT-LIPA and H274Y MT-LIPA but not ΔLXXLL MT-LIPA or L242P MT-LIPA
binding to LAL in TNBC cells ([10]; biotinylated compound, streptavidin pull down): binds to LAL
